Read-outs that look alike come from different tables or passages of the source.
Key:
unresectable LPS = conditions: patients with unresectable LPS; cited from earlier work
Lipo863 cells = assay: Spheroid formation in matrigel extracellular matrix scaffold; type: cell-based, human; conditions: 14-day treatment; FIG. 19
Description: FIG. 19. To evaluate the impact of IWS1 inhibition on spheroid formation, a matrigel extracellular matrix scaffold was employed.
To evaluate the impact of IWS1 inhibition on spheroid formation, a matrigel extracellular matrix scaffold was employed.

[1] = test system: Empty Vector (EV) dedifferentiated liposarcoma cells (cell lines Lipo863 and Lipo815); assay: Migration assay, Empty Vector (EV) control cells; type: cell-based, human; conditions: for reduction in cell migration, Empty Vector (EV): 24 hours of treatment, EV cells, non-cytotoxic concentration, vs control group, FIG. 16A-16B
Experimental: (§1) FIG. 16A-16B. Evaluation of the effect of IWS1 inhibitors identified from in silico screening on the migration of cancer cells. […] The migration assay was performed using two cell groups: Empty Vector (EV, Negative control) and shIWS1 (IWS1 knockdown).
FIG. 17. Evaluation of the dose-dependent effect of IWS1 inhibitors identified from in silico screening on the migration of cancer cells. Cell migration in vitro represents to some extent the ability of cells to metastasize in vivo.
(§2) To evaluate these compounds, we used dedifferentiated cell lines Lipo863 and Lipo815 as an in-vitro model of dedifferentiated liposarcoma (DDLPS). […] FIG. 15A-15C. Using these candidates as potential pharmacological inhibitors of IWS1, we expected to reproduce/mimic phenotypical changes specific for lentiviral IWS1 knockdown. […] We performed a migration assay to assess the ability of cells to migrate after 24 hours of treatment compared to intact cells (EV) as well as IWS1 knockdown cells (shIWS1). Using drug concentrations that would not affect the viability of the cells, we sought to evaluate predominantly the migratory ability of cells. […] FIG. 17.

[2] = test system: shIWS1 (IWS1 knockdown) dedifferentiated liposarcoma cells (cell lines Lipo863 and Lipo815); assay: Migration assay, IWS1 knockdown (shIWS1) cells; type: cell-based, human; conditions: 24 hours of treatment, vs non-treatment control
Experimental: as §1, §2

[3] = test system: dedifferentiated liposarcoma (DDLPS) cell line Lipo863; assay: Cell cytotoxicity (MTS) assay; conditions: Homo sapiens
IWS1 = target: T1, IWS1 (Homo sapiens, UniProt Q96ST2); assay: Nuclear/cytosolic fraction analysis of IWS1 distribution; type: cell-based; conditions: 20 uM; 48-hour treatment; DMSO negative control ratio 0.75
T1 construct: document uses human liposarcoma lines; nuclear/cytosolic fractionation
Description: The binding of the small molecule to IWS1 may cause the redistribution of the latter in the cell (cytoplasmic vs nuclear locations) due to conformational changes of the protein or disruption of its functions. To characterize the effect of a drug candidate on the distribution of IWS1 in the cell, we performed fraction analysis by separating cytoplasmic and nuclear proteins.

IWS1/Spt6 complex = assay: Co-immunoprecipitation of the IWS1/Spt6 complex from treated cells; type: cell-based, human; conditions: Co-IP after 48 hours of treatment; vs DMSO negative control
Description: The Co-IP method allowed us to analyze IWS1/Spt6 protein complex directly and assess the efficiency of the drug candidates to disrupt the complex.

[4] = test system: invasive DDLPS cell line Lipo246; assay: Invasion of DDLPS cells; type: cell-based; conditions: 48 h, read-out: decrease in invasion ability
Description: FIG. 18. Evaluation of the effect of IWS1 inhibitors identified from in silico screening on the […] of cancer cells. Invasiveness is important parameter used to characterize the aggressive behavior of cancer cells.
Invasiveness is important parameter used to characterize the aggressive behavior of cancer cells.

| SMILES | spheroid formation: number of spheroids (Lipo863 cells) | spheroid formation: size of spheroids (Lipo863 cells) | reduction in cell migration, Empty Vector (EV) [1] | reduction in migration, shIWS1 cells [2] | also measured |
| --- | --- | --- | --- | --- | --- |
| COc1cccc2c1C(=O)c1c(O)c3c(c(O)c1C2=O)C[C@@](O)(C(=O)CO)C[C@@H]3O[C@H]1C[C@H](N)[C@H](O)[C@H](C)O1 [Doxorubicin] | – | – | – | – | 5-year survival (unresectable LPS): 20-30%; response rate (unresectable LPS): 25% |
| Clc1ccc2c(c1)CCc1cccnc1C2=C1CCNCC1 [Desloratadine] | significantly reduced | significantly reduced | – | – | – |
| CN1CCC(=C2c3ccccc3C=Cc3ccccc32)CC1 [Cyproheptadine] | – | – | 24% | no significant reduction | – |
| CN1CCC(=C2c3ccccc3CC(=O)c3sccc32)CC1 [Ketotifen] | significantly reduced | significantly reduced | 18% | no significant reduction | IC50 ([3]; read-out: IC50 (cell cytotoxicity assay)): 63 µM; IC50 ([3]; read-out: IC50 (the concentration at which the drug kills 50% of cancer cells)): 63 µM; increase of ratio between nuclear and cytosolic fractions of IWS1 (IWS1): 1.1; decrease in migration ability (dose-dependent) ([1]; 1-10 uM solutions, FIG. 17): 18-44%; decrease in amount of IWS1/Spt6 complex pulled down (IWS1/Spt6 complex): more than 50%; inhibition at 20 µM [4]: 30% |
